Results reported in patent US20070116781A1, “Hydrogen Cyanamide Pesticide Formulations” (priority 2005, published 2007).

Legend:
crabgrass [1] = assay: Herbicidal activity, cyanamide and citric acid, pre-emergence, covered pots; assay type: in vivo, Digitaria sanguinalis
Experimental: (§1) The weeds used in these tests were grown from a standard weed seed pack of common annual and perennial weeds representing an extreme weed situation. The weeds included crabgrass (Digitaria sanguinalis), yellow nutsedge (Cyperus esculentus), […] (Ipomoea spp.), pigweed (Amaranthus spp.), and other annual weeds. Observations of the effects on the weed population as a whole were made, and individual observations were made for crabgrass, yellow nutsedge, sicklepod, morningglory, and pigweed. Stock solutions of hydrogen cyanamide at 1.25% by weight and citric acid at 5.0% by weight, both in water, were prepared, the hydrogen cyanamide from a phosphate-buffered 50% aqueous solution. […] Data analyses were performed in the same manner as Example 1. The results expressed in weeds per pot are listed in Table XIV for all weeds, Table XV for crabgrass, Table XVI for yellow nutsedge, Table XVII for sicklepod, Table XVIII for morningglory, and Table XIX for pigweed, all at various application rates for hydrogen cyanamide, with and without citric acid.

yellow nutsedge [2] = assay: Herbicidal activity, cyanamide and propionic acid, pre-emergence, covered pots; assay type: in vivo, Cyperus esculentus
Experimental: (§2) The weeds used in these tests were grown from a standard weed seed pack of common annual and perennial weeds representing an extreme weed situation. The weeds included yellow nutsedge (Cyperus esculentus), crabgrass (Digitaria sanguinalis), pigweed (Amaranthus spp.), momingglory (Ipomoea spp.), sicklepod (Senna obtusifolia) and other annual weeds. Observations of the effects on the weed population as a whole were made, and individual observations were made for yellow nutsedge, crabgrass, and sicklepod. Stock solutions of hydrogen cyanamide at 1.25% by weight and propionic acid at 5.0% by weight, both in water, were prepared, the hydrogen cyanamide from a phosphate-buffered 50% aqueous solution. […] Data analyses were performed in the same manner as Example 1. The results expressed in weeds per pot are listed in Table V for all weeds, Table VI for yellow nutsedge, Table VII for crabgrass, and Table VIII for sicklepod, all at various application rates for both hydrogen cyanamide and propionic acid.

sicklepod [3] = assay: Herbicidal activity, cyanamide and citric acid, pre-emergence, covered pots; assay type: in vivo, Senna obtusifolia
Experimental: as §1

sicklepod [4] = assay: Herbicidal activity, cyanamide and propionic acid, pre-emergence, covered pots; assay type: in vivo, Senna obtusifolia
Experimental: as §2

crabgrass [5] = assay: as above; assay type: in vivo, Digitaria sanguinalis
Experimental: as §2

yellow nutsedge [6] = assay: Herbicidal activity, cyanamide and citric acid, pre-emergence, covered pots; assay type: in vivo, Cyperus esculentus
Experimental: as §1

[7] = 13 d after treatment, cyanamide 50 mg/kg soil
[8] = 13 d after treatment, cyanamide 100 mg/kg soil
[9] = 13 d after treatment, cyanamide 150 mg/kg soil
[10] = 13 d after treatment, cyanamide 200 mg/kg soil
[11] = 13 d after treatment, cyanamide 250 mg/kg soil
[12] = 19 d after treatment, cyanamide 50 mg/kg soil
[13] = 19 d after treatment, cyanamide 100 mg/kg soil
[14] = 19 d after treatment, cyanamide 150 mg/kg soil
[15] = 19 d after treatment, cyanamide 200 mg/kg soil
[16] = 19 d after treatment, cyanamide 250 mg/kg soil
[17] = 26 d after treatment, cyanamide 50 mg/kg soil
[18] = 26 d after treatment, cyanamide 100 mg/kg soil
[19] = 26 d after treatment, cyanamide 150 mg/kg soil
[20] = 26 d after treatment, cyanamide 200 mg/kg soil
[21] = 26 d after treatment, cyanamide 250 mg/kg soil
[22] = 8 d after treatment, cyanamide 75 mg/kg soil
[23] = 8 d after treatment, cyanamide 150 mg/kg soil
[24] = 14 d after treatment, cyanamide 75 mg/kg soil
[25] = 14 d after treatment, cyanamide 150 mg/kg soil
[26] = 20 d after treatment, cyanamide 75 mg/kg soil
[27] = 20 d after treatment, cyanamide 150 mg/kg soil
[28] = 27 d after treatment, cyanamide 75 mg/kg soil
[29] = 27 d after treatment, cyanamide 150 mg/kg soil

SMILES: N#CN [Cyanamide, hydrogen cyanamide]
- Weeds Per Pot: Crabgrass (crabgrass [1]; 9 d after treatment, cyanamide 50 mg/kg soil): 4.3
- Weeds Per Pot: Crabgrass (crabgrass [1]; 9 d after treatment, cyanamide 100 mg/kg soil): 1.6
- Weeds Per Pot: Crabgrass (crabgrass [1]; 9 d after treatment, cyanamide 150 mg/kg soil): 0
- Weeds Per Pot: Crabgrass (crabgrass [1]; 9 d after treatment, cyanamide 200 mg/kg soil): 0
- Weeds Per Pot: Crabgrass (crabgrass [1]; 9 d after treatment, cyanamide 250 mg/kg soil): 0
- Weeds Per Pot: Crabgrass (crabgrass [1]; [7]): 7.4
- Weeds Per Pot: Crabgrass (crabgrass [1]; [8]): 2.9
- Weeds Per Pot: Crabgrass (crabgrass [1]; [9]): 0.4
- Weeds Per Pot: Crabgrass (crabgrass [1]; [10]): 0
- Weeds Per Pot: Crabgrass (crabgrass [1]; [11]): 0
- Weeds Per Pot: Crabgrass (crabgrass [1]; [12]): 7.3
- Weeds Per Pot: Crabgrass (crabgrass [1]; [13]): 3.4
- Weeds Per Pot: Crabgrass (crabgrass [1]; [14]): 0.6
- Weeds Per Pot: Crabgrass (crabgrass [1]; [15]): 0
- Weeds Per Pot: Crabgrass (crabgrass [1]; [16]): 0
- Weeds Per Pot: Crabgrass (crabgrass [1]; [17]): 9.6
- Weeds Per Pot: Crabgrass (crabgrass [1]; [18]): 5.6
- Weeds Per Pot: Crabgrass (crabgrass [1]; [19]): 1.4
- Weeds Per Pot: Crabgrass (crabgrass [1]; [20]): 0
- Weeds Per Pot: Crabgrass (crabgrass [1]; [21]): 0
- Weeds Per Pot: Yellow Nutsedge (yellow nutsedge [2]; [22]): 1.4
- Weeds Per Pot: Yellow Nutsedge (yellow nutsedge [2]; [23]): 0.1
- Weeds Per Pot: Yellow Nutsedge (yellow nutsedge [2]; [24]): 3.6
- Weeds Per Pot: Yellow Nutsedge (yellow nutsedge [2]; [25]): 2.4
- Weeds Per Pot: Yellow Nutsedge (yellow nutsedge [2]; [26]): 4.6
- Weeds Per Pot: Yellow Nutsedge (yellow nutsedge [2]; [27]): 3.4
- Weeds Per Pot: Yellow Nutsedge (yellow nutsedge [2]; [28]): 6.9
- Weeds Per Pot: Yellow Nutsedge (yellow nutsedge [2]; [29]): 6.1
- Weeds Per Pot: Sicklepod (sicklepod [3]; [7]): 1.3
- Weeds Per Pot: Sicklepod (sicklepod [3]; [8]): 0.9
- Weeds Per Pot: Sicklepod (sicklepod [3]; [9]): 0.3
- Weeds Per Pot: Sicklepod (sicklepod [3]; [10]): 0
- Weeds Per Pot: Sicklepod (sicklepod [3]; [11]): 0
- Weeds Per Pot: Sicklepod (sicklepod [3]; [12]): 1.7
- Weeds Per Pot: Sicklepod (sicklepod [3]; [13]): 0.7
- Weeds Per Pot: Sicklepod (sicklepod [3]; [14]): 0.4
- Weeds Per Pot: Sicklepod (sicklepod [3]; [15]): 0.3
- Weeds Per Pot: Sicklepod (sicklepod [3]; [16]): 0
- Weeds Per Pot: Sicklepod (sicklepod [3]; [17]): 1.6
- Weeds Per Pot: Sicklepod (sicklepod [3]; [18]): 0.7
- Weeds Per Pot: Sicklepod (sicklepod [3]; [19]): 0.4
- Weeds Per Pot: Sicklepod (sicklepod [3]; [20]): 0.3
- Weeds Per Pot: Sicklepod (sicklepod [3]; [21]): 0.1
- Weeds Per Pot: Sicklepod (sicklepod [4]; [22]): 1
- Weeds Per Pot: Sicklepod (sicklepod [4]; [23]): 0.4
- Weeds Per Pot: Sicklepod (sicklepod [4]; [24]): 1.9
- Weeds Per Pot: Sicklepod (sicklepod [4]; [25]): 2.1
- Weeds Per Pot: Sicklepod (sicklepod [4]; [26]): 2
- Weeds Per Pot: Sicklepod (sicklepod [4]; [27]): 2.7
- Weeds Per Pot: Sicklepod (sicklepod [4]; [28]): 2.4
- Weeds Per Pot: Sicklepod (sicklepod [4]; [29]): 3.1
- Weeds Per Pot: Crabgrass (crabgrass [5]; [22]): 0
- Weeds Per Pot: Crabgrass (crabgrass [5]; [23]): 0
- Weeds Per Pot: Crabgrass (crabgrass [5]; [24]): 3.3
- Weeds Per Pot: Crabgrass (crabgrass [5]; [25]): 0
- Weeds Per Pot: Crabgrass (crabgrass [5]; [26]): 8.6
- Weeds Per Pot: Crabgrass (crabgrass [5]; [27]): 3.7
- Weeds Per Pot: Crabgrass (crabgrass [5]; [28]): 7.7
- Weeds Per Pot: Crabgrass (crabgrass [5]; [29]): 4
- Weeds Per Pot: Yellow Nutsedge (yellow nutsedge [6]; [7]): 0.9
- Weeds Per Pot: Yellow Nutsedge (yellow nutsedge [6]; [8]): 0.4
- Weeds Per Pot: Yellow Nutsedge (yellow nutsedge [6]; [9]): 0.1
- Weeds Per Pot: Yellow Nutsedge (yellow nutsedge [6]; [10]): 0
- Weeds Per Pot: Yellow Nutsedge (yellow nutsedge [6]; [11]): 0
- Weeds Per Pot: Yellow Nutsedge (yellow nutsedge [6]; [12]): 2.4
- Weeds Per Pot: Yellow Nutsedge (yellow nutsedge [6]; [13]): 0.6
- Weeds Per Pot: Yellow Nutsedge (yellow nutsedge [6]; [14]): 0.6
- Weeds Per Pot: Yellow Nutsedge (yellow nutsedge [6]; [15]): 0
- Weeds Per Pot: Yellow Nutsedge (yellow nutsedge [6]; [16]): 0
- Weeds Per Pot: Yellow Nutsedge (yellow nutsedge [6]; [17]): 2.9
- Weeds Per Pot: Yellow Nutsedge (yellow nutsedge [6]; [18]): 1.7
- Weeds Per Pot: Yellow Nutsedge (yellow nutsedge [6]; [19]): 1.0
- Weeds Per Pot: Yellow Nutsedge (yellow nutsedge [6]; [20]): 0
- Weeds Per Pot: Yellow Nutsedge (yellow nutsedge [6]; [21]): 0
